From patent publication US6649644B1, “Method of treating HIV infection by combined use of a cytotoxic agent and a non-nucleoside reverse transcriptase inhibitor” (priority 1998, dated 2003)
Where two headings read alike, the source gives them in different places.

Assays:
[1] = tested on: HIV-1 (RF strain); assay type: cell-based; settings: for HIV Replication (Day 4), p24: single agent, human PBMCs, Table 2; for changes in the level of HIV p24 after either 4 or 8 days: single agents at the concentrations of Table 2
Description: Freshly isolated human blood lymphocytes and monocytes were infected with HIV-1 (RF strain) and then incubated for an additional 3 days in the presence of compounds alone or in combinations or left untreated. At the end of 4 days, the infected cells were briefly centrifuged. The supernatant was collected and used to titer HIV p24, using an enzyme-linked immunosorbent assay (ELISA). The cell pellets were washed two times with medium lacking any inhibitors, and the washed human peripheral blood mononuclear cells (PBMCs) were mixed 1:1 with MT-2 lymphocytes and incubated for an additional 4 days absent any inhibitors. All cells were then removed by centrifugation and the supernatant was again assayed for p24 levels by ELISA.
Viral p24 produced by HIV-1 (RF) infected cells was quantified to determine the effects of a cytotoxic drug and efavirenz alone or in combination. On day one, 5.25×10^e6 donor PBMCs (stimulated by PHA/IL-2 for 72 hours in RPMI tissue culture medium were centrifuged at 1,000 rpm for 10 minutes and the supernatant fluid was decanted. Using 50% tissue culture infectious dose (TCID50) estimated from the viral stock titration procedure (PRR 97-04), 5.25×10^6 PBMCs were infected with 5.2×10^3 TCID50 of virus (M. O. I. ˜0.001). Cells were resuspended, the virus stock added, and incubated at 37° C. for one hour. RPMI was added to the infected PBMCs and unabsorbed virus in the supernatant fluid was removed following centrifugation. The cells were resuspended in 10 mL RPMI (20% FCS, 30 units IL-2/mL) and placed in a 25 cm^2 tissue culture flask. The virus control flask contained infected cells only. Similar flasks contained efavirenz or the cytotoxic drug added separately or in combination. Flasks were incubated at 37° C., in 5% CO2 for 3 days. On day 4, the contents of each flask were centrifuged and the supernatant, inactivated with 0.5% Triton X-100, was frozen at −70° C. for p24 analysis. The infected PBMCs were resuspended in RPMI, centrifuged again, and the supernatant discarded to remove residual drugs. The pellets were resuspended in each flask, and 1×10^e6 MT-2 cells were added. The final volume was 10 mL RPMI (5% FCS) per flask. After 4 more days of incubation (day 8), supernatant from each flask was inactivated with Triton X-100 and frozen at −70° C. The p24 antigen concentration of viral supernatants from days 4 and 8 was determined using the NEN Life Science Products HIV-1 p24 antigen capture assay.

[2] = tested on: HIV-1 (RF strain); assay type: cell-based; settings: for Infectious Centers (Day 8), p24: single agent, PBMCs washed, co-cultivated with MT-2, Table 2
[3] = tested on: PBMC; assay: Inhibition of PBMC cell division; assay type: cell-based, human; settings: 100 μM
[4] = Toxicity of compounds for uninfected MT-2 cells (MTT assay); settings: human
Source text: (§1) In order to test whether some external death stimuli, which are independent of bcl-2 (Reed, 1994), may not selectively kill HIV-infected cells, we exposed uninfected and HIV-infected cells to various chemical toxins, including losoxantrone, bisnafide, etoposide and hydroxyurea. […] Therefore, we proceeded to examine whether either losoxantrone or etoposide were able to selectively kill HIV-infected cells.
(§2) The concentration of the cytotoxic drugs losoxantrone, etoposide or hydroxyurea required to reduce cell viability by 50% (TC50) was determined with or without virus infection. Graded concentrations of drug in RPMI (5% FCS) were added to a 96-well microtiter plate. 1×10^e5 cells were added per well. Cell control wells contained cells in RPMI only. Plates were incubated at 37° C., 5% CO2 for 3 days. The tetrazolium dye (3-4,5-dimethylthiazol-2yl)-2,5-diphenyltetrazolium bromide (MTT) was used to assess the number of viable cells. After the 3-day incubation period, 10 μL of MTT (5 mg/mL in 1×PBS) was added to each well. Following a 2 hour incubation at 37° C., 150 μL was removed from each well and 200 μL of 0.04 N HCl in isopropanol was added. The contents of each well were mixed and the quantity of reduced dye was measured by absorbance at 570 nm. The concentration of compound producing a 50% reduction in signal relative to the untreated cultures (TC50) was determined.

[5] = tested on: human T-lymphocytes (MT-2); assay: as above
Source text: as §1, §2

[6] = tested on: human T-lymphocytes (MT-2) infected with HIV-1; assay: Toxicity of compounds for HIV-1-infected MT-2 cells (MTT assay); settings: for killing of infected cells relative to uninfected lymphocytes: after 24 hours, losoxantrone 10 nM, etoposide 100 nM
Source text: as §1
as §2, with “Plates were incubated at 37° C., 5% CO2 for 3 days.” left out, “After the 3-day incubation period, 10 μL of MTT (5 mg/mL in 1×PBS) was added to each well.” left out

[7] = Homo sapiens, T-lymphocyte, read-out: Viable Cells (% Remaining) +HIV

Row | SMILES | changes in the level of HIV p24 after either 4 or 8 days [1] | viability at 0.01 µM [6, 7] | killing of infected cells relative to uninfected lymphocytes [6] | HIV Replication (Day 4), p24 ([1]; 10 nM) | Infectious Centers (Day 8), p24 ([2]; 10 nM) | other results
1 | Nc1cccc(CN2C(=O)N(Cc3cccc(N)c3)[C@H](Cc3ccccc3)[C@H](O)[C@@H](O)[C@H]2Cc2ccccc2)c1 [Compound E, [4R-(4α, 5α, 6β, 7β]-1,3-bis (3-aminophenylmethyl]hexahydro-5,6-dihydroxy-4,7-bis (phenlymethyl-2H-1,3-diazepin-2-one dimethylsulfonate] | only small changes | – | – | – | – | HIV Replication (Day 4), p24 ([1]; 100 nM): 25000 pg/mL; Infectious Centers (Day 8), p24 ([2]; 100 nM): 350000 pg/mL
2 | NC(=O)NO [hydroxyurea] | – | – | – | – | – | inhibition of PBMC cell division [3]: 3 fold
3 | O=C1c2c(O)cccc2-c2nn(CCNCCO)c3ccc(NCCNCCO)c1c23 [losoxantrone] | only small changes | 4% | 5 fold | 200000 pg/mL | 700000 pg/mL | viability at 24 h, 0.01 µM [4]: 68%; concentration with evidence of substantial toxicity to uninfected cells [5]: ≥ 10 nM; range of concentrations that show selectivity for infected cells ([6]; cell survival, infected vs. control cells): 0.1 to 10 nM; increase in p24 titers ([1]; 10 nM, days 4 and 8): 3 to 7 fold
4 | COc1cc([C@@H]2c3cc4c(cc3[C@@H](O[C@@H]3O[C@@H]5CO[C@@H](C)O[C@H]5[C@H](O)[C@H]3O)[C@H]3COC(=O)[C@H]23)OCO4)cc(OC)c1O [etoposide] | – | – | 6 fold | – | – | viability at 24 h, 0.1 µM [4]: 71%; viability at 0.1 µM [6, 7]: 12%; p24 results when substituted for losoxantrone ([2]; compared with the losoxantrone results, not shown): very similar
5 | O=C1Nc2ccc(Cl)cc2[C@@](C#CC2CC2)(C(F)(F)F)O1 [efavirenz] | only small changes | 82% | – | 15000 pg/mL | 200000 pg/mL | viability at 24 h, 0.01 µM ([4]; uninfected MT-2 T-lymphocytes): 81%
